Data on 2 molecules can be found in patent US4011207A, “Des-(Ala^1, Gly^2,Lys^4 -Srif, Des-(Ala^1, Gly^2, Lys^4)-D-Trp^8 -Srif and intermediates” (American Home Products Corporation, priority 1976, dated 1977).

What all share (type): in vivo
The subject of one assay is growth hormone. The experiment in a line: Growth hormone level by radioimmunoassay in nembutal-treated rats after subcutaneous injection. The protocol: (§1) The growth hormone activity of the compound of Example 2 was determined by injecting rats weighing about 150 g. first with nembutal intraperitoneally at a dose of 50 mg/kg then after 5 minutes injecting the rats subcutaneously with a solution of the compound of Example 2 in saline at a dose of 100 m.g. per rat. Blood samples are taken 15 minutes after injection with the compound of Example 2 and the growth hormone level determined by radioimmunoassay.
(§2) The activity of the product of Example 3 was determined by the same technique as the compound of Example 2. The dose given the test animals was 1 mg/kg. Growth hormone concentration was reduced to 28±4 ng/ml from the control level of 75±16 (p<0.01). The insulin concentration in micro units per milliliter was reduced marginally to 168±13 from the control level of 208±11 (p>0.05). The glucagon concentration in pico grams per milliliter was not effected, being 31±3 in the treated animals as opposed to 37±2 in the control animals.

For another assay, the system named is insulin. As to the kind of experiment: Insulin concentration in rats, same technique. The note with it: dose 1 mg/kg, control level 208±11 (p>0.05), reduced marginally. As for the experimental part: as §1, §2
For the next assay, the system named is glucagon. As to the kind of experiment: Glucagon concentration in rats, same technique. The note with it: dose 1 mg/kg, control 37±2, not effected. The protocol: as §1, §2

Structures can show the parent of a compound that is named as a salt. Where a SMILES comes first, the peptide text is derived from it. Bridges are numbered along the chain shown (N, C = ends).

As for `C[C@@H](O)[C@@H]1NC(=O)[C@H](Cc2ccccc2)NC(=O)[C@H]([C@@H](C)O)NC(=O)[C@H](CCCCN)NC(=O)[C@H](Cc2c[nH]c3ccccc23)NC(=O)[C@H](Cc2ccccc2)NC(=O)[C@H](Cc2ccccc2)NC(=O)[C@H](CC(N)=O)NC(=O)[C@@H](N)CSSC[C@@H](C(=O)O)NC(=O)[C@H](CO)NC1=O` [Example 2, L-Cysteinyl-L-asparaginyl-L-phenylalanyl-L-phenylalanyl-L-tryptophyl-L-lysyl-L-threonyl-L-phenylalanyl-L-threonyl-L-seryl-L-cysteine- (1,11 cyclic disulfide), diacetate salt] (H-CNFFWKTFTSC-OH; disulfide 1-11), in the assay with growth hormone (rats about 150 g, nembutal 50 mg/kg i.p., compound s.c. in saline at 100 m.g. per rat, blood 15 minutes after injection, control 212±26 ng/ml), the growth hormone level turned out to be 103 ± 13 ng/mL.
“N-tert-Butyloxycarbonyl-S-p-methoxybenzyl-L-cysteinyl-L-asparaginyl-L-phenylalanyl-L-phenylalanyl-D-tryptophyl-ε-2-chlorobenzyloxycarbonyl-L-lysyl-O-benzyl-L-threonyl-L-phenylalanyl-O-benzyl-L-threonyl-O-benzyl-L-seryl-S-p-methoxybenzyl-L-cysteinyl-hydroxymethyl polystyrene [Example 3]”: the Growth hormone concentration with growth hormone (rats, dose 1 mg/kg, same technique, control level 75±16 (p<0.01)) stood at 28 ± 4 ng/mL. Further, in the assay with insulin, the insulin concentration was 168±13 micro units per milliliter. In the assay on glucagon, this molecule showed a glucagon concentration of 31±3 pico grams per milliliter.
